Data: patent US5081264A, “Bioxanthracene derivatives” (Kyowa Hakko Kabushiki Kaisha, priority 1989, dated 1992)
Where two headings read alike, the source gives them in different places.

Columns and labels:
[1] = target: N-methyl-D-aspartic acid receptor; test: Binding activity to N-methyl-D-aspartic acid receptor ([3H]TCP binding in rat brain membranes); settings: rat brain membranes (crushed cerebrum)
Description: The binding activity of Compounds ES-242 to N-methyl-D-aspartic acid receptor was measured as follows.
With reference to the modified method of Vignon et al [Brain Research, 280, 194-197 (1983)], the binding activity of ES-242 to N-[1-(2-thienyl) cyclohexyl]-3,4-[^3 H]piperidine ([^3 H]TCP) in rat brain membranes was measured by the use of a crushed cerebrum of a rat and expressed by IC50 viz. a concentration required for 50% inhibition of the binding ability to the sample.

[2] = tested on: nerve cells (cerebellum of a rat); test: Protection of cultured nerve cells (cerebellum) against L-glutamic acid; format: cell-based; settings: L-glutamic acid 100 μM; for inhibition of the death of nerve cells induced by L-glutamic acid: cerebellum (Tables 4 and 5); for viability at 1 µg/mL / viability at 5 µg/mL / viability at 10 µg/mL: Rattus norvegicus, cerebellum, read-out: survival ratio of the cells (SR); for viability at 1 µg/mL: test compound 1 μg/ml; for viability at 5 µg/mL: test compound 5 μg/ml; for viability at 10 µg/mL: test compound 10 μg/ml
Description: (§1) The septal area was taken out from the brain of a fetal rat. The cells were dispersed using trypsin and deoxyribonuclease and were cultured for one day on a Pit medium (Dulbecco modified Eagle medium or Ham F12 medium, commercial products of Nissui Seiyaku K. K., Japan) containing 5% horse serum and 5% fetal calf serum. After adding cytosine arabinoide (10μM) to the medium, the culturing was continued for 10 days.
(§2) L-glutamic acid (100 μM) and ES-242-1 were added to the cultured broth to measure the survival ratio of the nerve cells. For control purposes, a similar procedure was carried out with the exception that glutamic acid (100μM) and/or ES-242-1 were replaced by dimethylsulfoxide (DMSO) (0.5%). The cells which survived were counted by the fluorescence-dying method with reference to the Costa et al. method [Proc. Natl. Acad. Sci., U.S.A., 85, 7351-7355 (1988)].
(§3) The results shown in the following Table 3 were obtained in a manner similar to that described above except the cerebellum was used instead of the septal area. In the following tables, the term "GA" denotes L-glutamic acid (unit 100μM) and the term "SR" denote the survival ratio of the cells (%).
The results shown in the following Tables 4 and 5 were obtained by a procedure similar to that described in Experiment 1 above with the exception that the cerebellum of a rat and ES-242-2 or ES-242-5 were respectively used instead of the septal area and ES-242-1.

[3] = tested on: CAI area neurons of the hippocampus; test: Protection of nerve cells from ischaemic injury; format: in vivo, Mongolian gerbils
Description: Ischaemic injury of the nervous system was induced in the CAI area of the hippocampus of Mongolian gerbils by closing and reperfusing two cartoid arteries with reference to the Kirino et al method [Cerebral Nerve, Vol. 38, No. 12, 1157-1163 (1986)] as follows.
On each occasion, the test compound was suspended in a physiological solution of sodium chloride. The animal (body weight 60-70 g) was anesthetized with ether. The left and right common cartoid arteries were exposed through midcervical vertical skin incision and the anesthetic was discontinued. The cartoid arteries on both sides were occluded for 5 minutes using aneurism clips. Immediately after this, a given amount (100 mg/kg) of Compound ES-242-1 was given orally to the animal. One week after this, the animal was fixed by transcardic perfusion. Immediately after this, the brain was removed from the animal to prepare a sample of the histologic section containing the CIA area of the hippocampus. The number of normal cells of the CAI area neurons per 1 mm linear length was counted.
The above-mentioned treatment is hereinafter referred to as the ischaemic treatment.
For control purposes, a group of the animals were given a physiological solution of sodium chloride only, without ischaemic treatment. […]

[4] = tested on: nerve cells (septal area of the brain of a fetal rat); test: Protection of cultured nerve cells (septal area) against L-glutamic acid; format: cell-based; settings: L-glutamic acid 100 μM
Description: Protection of cultured nerve cells
as §1, §2, §3

[5] = Solubility; format: physicochemical
[6] = literature report; cited from earlier work
[7] = tested on: nervous system; settings: literature report; cited from earlier work
[8] = literature report; cited from earlier work; remark: listed apart in the source
[9] = tested on: N-methyl-D-aspartic acid receptors; settings: literature report; cited from earlier work
[10] = Table 5, control 88, GA alone 40
[11] = Table 4, control 95, GA alone 56

With `COc1cc(OC)c2c(O)c3c(c(-c4c5c(c(O)c6c(OC)cc(OC)cc46)COC(C)C5O)c2c1)CC(C)OC3` (centres unmarked) [ES-242-5] the “IC50 (50% inhibition of [3H]TCP binding)” value [1] was 0.6 µg/mL, the “inhibition of the death of nerve cells induced by L-glutamic acid” value (from here on “inhibition of the death … by L-glutamic acid”) [2] was “inhibit the death of the nerve cells” and the viability at 1 µg/mL [2, 10] was 68%. It also gave a viability at 5 µg/mL [2, 10] of 73% and a viability at 10 µg/mL [2, 10] of 79%.

For `COc1cc(OC)c2c(O)c3c(c(-c4c5c(c(O)c6c(OC)cc(OC)cc46)COC(C)C5O)c2c1)C(O)C(C)OC3` (centres unmarked) [ES-242-4], the “IC50 (50% inhibition of [3H]TCP binding)” value [1] was 14.6 µg/mL.

With `COc1cc(OC)c2c(O)c3c(c(-c4c5c(c(O)c6c(OC)cc(OC)cc46)COC(C)C5OC(C)=O)c2c1)C(O)C(C)OC3` (centres unmarked) [ES-242-3] the “IC50 (50% inhibition of [3H]TCP binding)” value [1] was 1.8 µg/mL.

With `COc1cc(OC)c2c(O)c3c(c(-c4c5c(c(O)c6c(OC)cc(OC)cc46)COC(C)C5OC(C)=O)c2c1)CC(C)OC3` (centres unmarked) [ES-242-1] the “number of normal cells in average ± standard deviation (N)” value ([3]; 100 mg/kg oral immediately after 5 min occlusion, one week, n=5, normal control 100 ± 4.7, ischaemic control 0 ± 0) was 24.4 ± 20.6 cells/mm, the “protecting activity to ischaemic injury of the nervous system” value ([3]; 100 mg/kg oral, gerbils) was “exhibited a significant protecting activity” and the “inhibition of the death … by L-glutamic acid” value ([4]; septal area and cerebellum (Tables 2 and 3)) was “inhibited the death of the nerve cells”. The viability at 0.1 µg/mL ([4]; Rattus norvegicus, septal area, test compound 0.1 μg/ml, control 87, GA alone 5, read-out: survival ratio of the cells (SR)) was 23%, the viability at 0.5 µg/mL ([4]; Rattus norvegicus, septal area, test compound 0.5 μg/ml, control 87, GA alone 5, read-out: survival ratio of the cells (SR)) was 73% and the Solubility ([5]; methanol, acetone, ethyl acetate and chloroform) was “Readily soluble”. The Solubility ([5]; water and n-hexane) was “Insoluble”, the “IC50 (50% inhibition of [3H]TCP binding)” value [1] was 0.1 µg/mL and the viability at 5 µg/mL ([2]; Table 3, control 90, GA alone 44) was 75%.

With `COc1cc(OC)c2c(O)c3c(c(-c4c5c(c(O)c6c(OC)cc(OC)cc46)COC(C)C5OC(C)=O)c2c1)C(OC(C)=O)C(C)OC3` (centres unmarked) [ES-242-2] the viability at 5 µg/mL ([4]; Rattus norvegicus, septal area, test compound 5 μg/ml, control 87, GA alone 5, read-out: survival ratio of the cells (SR)) was 74%, the viability at 50 µg/mL ([4]; Rattus norvegicus, septal area, test compound 50 μg/ml, control 87, GA alone 5, read-out: survival ratio of the cells (SR)) was 74% and the “IC50 (50% inhibition of [3H]TCP binding)” value [1] was 1.9 µg/mL. For the same compound, the “inhibition of the death … by L-glutamic acid” value [2] was “inhibit the death of the nerve cells”, the viability at 1 µg/mL [2, 11] was 44% and the viability at 10 µg/mL [2, 11] was 88%.

For `COc1cc2c(-c3c(OC)c(C)c(O)c4c(O)c5c(cc34)C[C@](C)(O)CC5=O)c3c(c(O)c2c(O)c1C)C(=O)C[C@@](C)(O)C3` [Singueanol II], the anti-aspartic activity [6] is given as “exhibit anti-aspartic”, the “capability of protecting the nervous system” value [7] is given as “neither capable of protecting the nervous system” and the anti-bacterial activity [8] is given as “exhibit anti-aspartic and anti-bacterial activity”. The “antagonism against N-methyl-D-aspartic acid receptors” value [9] was “nor antagnostic against N-methyl-D-aspartic acid receptors”.
